Measurements: patent publication US20230000813A1, “COMPOUND FOR THE TREATMENT OF BOVINE OR SWINE RESPIRATORY DISEASE” (Intervet Inc., priority 2016, published 2023)
≈ marks a conversion by molar mass, not a printed value.

Key:
Experiment in all cases: MIC, broth-microdilution (CLSI VET01-A4)
Type in all cases: cell-based
[1] = system: Pasteurella multocida PM 12080 (IV102277-0093, BRD field isolate); settings: Pasteurella multocida PM 12080; for MIC: read-out: MIC PM 12080
Procedure, shortened: (§1)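 MIC values follow CLSI VET01-S3 interpretation, scored as the lowest concentration free of visible turbidity within a doubling dilution series in microdilution trays.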

[2] = system: Mannheimia haemolytica MH 10720 (154, BRD field isolate); settings: Mannheimia haemolytica MH 10720; for MIC: read-out: MIC MH 10720
Procedure, shortened: as §1

[3] = system: Pasteurella multocida PM 6267 (P 2225 (L386), reference strain, mouse infection strain); settings: Pasteurella multocida PM 6267; for MIC: read-out: MIC PM 6267
Procedure, shortened: as §1

[4] = system: Pasteurella multocida PM 10775 (080130003051, BRD field isolate); settings: Pasteurella multocida PM 10775
Procedure, shortened: as §1

[5] = system: Pasteurella multocida PM 6391 (ATCC 43137, reference strain); settings: Pasteurella multocida PM 6391; for MIC: read-out: MIC PM 6391
Procedure, shortened: as §1

[6] = system: Mannheimia haemolytica MH 12587 (1071, BRD field isolate, macrolide-resistance: erm+, E+); settings: Mannheimia haemolytica MH 12587, macrolide-resistant
Procedure, shortened: as §1

[7] = system: Mannheimia haemolytica MH 6357 (M7/2, reference strain, cattle infection strain); settings: Mannheimia haemolytica MH 6357; for MIC: read-out: MIC MH 6357
Procedure, shortened: as §1

[8] = system: Mannheimia haemolytica MH 6374 (ATCC 33396, reference strain); settings: Mannheimia haemolytica MH 6374; for MIC: read-out: MIC MH 6374
Procedure, shortened: as §1

[9] = system: Mannheimia haemolytica MH 13065 (XB0446-6003.9, BRD field isolate)
Procedure, shortened: (§2)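 MIC read by eye as lowest compound concentration without visible growth (no turbidity), interpreted per CLSI VET01-S3. Doubling-dilution broth-microdilution trays, run according to CLSI VET01-A4.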

[10] = system: Mannheimia haemolytica MH 13093 (XB0472-6014.1, BRD field isolate)
Procedure, shortened: as §2

Row | Structure (SMILES) | MIC [1] | MIC [2] | MIC PM 6267 [3] | MIC PM 10775 [4] | MIC [5] | MIC MH 12587 [6] | MIC [7] | MIC [8] | MIC [9] | MIC [10] | MIC PM 12080 [1] | MIC MH 10720 [2] | MIC PM 6391 [5] | MIC [3] | MIC MH 6357 [7] | MIC MH 6374 [8] | MIC MH 13065 [9]
1 | CC(C)C(NC(=O)c1ccc(C#Cc2ccc(CNCc3ccnc(Cl)c3)cc2)cc1)C(=O)NO (stereo not shown) [Compound 288] | 0.2 µM (≈ 0.0982 µg/mL) | 0.2 µM (≈ 0.0982 µg/mL) | <=0.1 μM | <=0.1 μM | 0.4 µM (≈ 0.196 µg/mL) | 1.6 µM (≈ 0.786 µg/mL) | 0.4 µM (≈ 0.196 µg/mL) | 0.8 µM (≈ 0.393 µg/mL) | 0.8 µM (≈ 0.393 µg/mL) | 0.8 µM (≈ 0.393 µg/mL) |  |  |  |  |  |  | 
2 | CC(C)(O)C(NC(=O)c1ccc(C#Cc2ccc(CNCc3cccnc3)cc2)cc1)C(=O)NO (stereo not shown) [Compound 574] |  |  | <=0.1 μM | <=0.1 μM |  | 1.6 µM (≈ 0.756 µg/mL) | 0.8 µM (≈ 0.378 µg/mL) | 0.4 µM (≈ 0.189 µg/mL) | 0.4 µM (≈ 0.189 µg/mL) | 0.8 µM (≈ 0.378 µg/mL) | <=0.1 μM | <=0.1 μM | <=0.1 μM |  |  |  | 
3 | CC(C)(N)C(NC(=O)c1ccc(C#Cc2ccc(CN3CC=CC3)s2)cc1)C(=O)NO (racemic) [Compound 649] | 0.2 µM (≈ 0.0877 µg/mL) |  | <=0.1 μM | <=0.1 μM | 0.2 µM (≈ 0.0877 µg/mL) | 0.8 µM (≈ 0.351 µg/mL) | 0.8 µM (≈ 0.351 µg/mL) | 0.4 µM (≈ 0.175 µg/mL) | 0.4 µM (≈ 0.175 µg/mL) | 0.8 µM (≈ 0.351 µg/mL) |  | <=0.1 μM |  |  |  |  | 
4 | CC(C)([C@@H](NC(=O)c1ccc(C#Cc2ccc(CNCc3nccs3)cc2)cc1)C(=O)NO)S(C)(=O)=O [C. 620] |  |  | <=0.1 μM | <=0.1 μM |  | 0.4 µM (≈ 0.216 µg/mL) | 0.2 µM (≈ 0.108 µg/mL) | 0.2 µM (≈ 0.108 µg/mL) | 0.2 µM (≈ 0.108 µg/mL) | 0.2 µM (≈ 0.108 µg/mL) | <=0.1 μM | <=0.1 μM | <=0.1 μM |  |  |  | 
5 | Cc1ccc(CNCc2ccc(C#Cc3ccc(C(=O)NC(C(=O)NO)C(C)C)cc3)cc2)cc1 (stereo not shown) [Compound 292] | 0.4 µM (≈ 0.188 µg/mL) | 0.4 µM (≈ 0.188 µg/mL) |  | <=0.1 μM | 0.4 µM (≈ 0.188 µg/mL) | 1.6 µM (≈ 0.751 µg/mL) | 0.4 µM (≈ 0.188 µg/mL) | 0.8 µM (≈ 0.376 µg/mL) | 0.8 µM (≈ 0.376 µg/mL) | 0.8 µM (≈ 0.376 µg/mL) |  |  |  | 0.2 µM (≈ 0.0939 µg/mL) |  |  | 
6 | CC(C)C(NC(=O)c1ccc(C#Cc2ccc(CNCc3cccs3)cc2)cc1)C(=O)NO (stereo not shown) [Compound 291] |  |  | <=0.1 μM | <=0.1 μM | 0.2 µM (≈ 0.0923 µg/mL) | 0.8 µM (≈ 0.369 µg/mL) | 0.2 µM (≈ 0.0923 µg/mL) | 0.4 µM (≈ 0.185 µg/mL) | 0.2 µM (≈ 0.0923 µg/mL) | 0.4 µM (≈ 0.185 µg/mL) | <=0.1 μM | <=0.1 μM |  |  |  |  | 
7 | CSC(C)(C)[C@H](NC(=O)c1ccc(C#Cc2ccc(CNCc3ccco3)cc2)cc1)C(=O)NO [Compound 596] |  |  | <=0.1 μM | <=0.1 μM | 0.2 µM (≈ 0.0983 µg/mL) | 0.8 µM (≈ 0.393 µg/mL) | 0.4 µM (≈ 0.197 µg/mL) | 0.8 µM (≈ 0.393 µg/mL) | 0.4 µM (≈ 0.197 µg/mL) | 0.4 µM (≈ 0.197 µg/mL) | <=0.1 μM | <=0.1 μM |  |  |  |  | 
8 | C[C@@H](O)[C@H](NC(=O)c1ccc(C#Cc2ccc(CNCc3cccs3)cc2)cc1)C(=O)NO [Compound 260] |  |  | <=0.1 μM | <=0.1 μM |  | 0.4 µM (≈ 0.185 µg/mL) |  |  | 0.4 µM (≈ 0.185 µg/mL) | 0.4 µM (≈ 0.185 µg/mL) | <=0.1 μM | <=0.1 μM | <=0.1 μM |  | <=0.1 μM | <=0.1 μM | 
9 | CC(C)(O)C(NC(=O)c1ccc(C#Cc2ccc(CNCc3cccs3)cc2)cc1)C(=O)NO (stereo not shown) [Compound 578] |  |  | <=0.1 μM | <=0.1 μM |  | 0.4 µM (≈ 0.191 µg/mL) | 0.4 µM (≈ 0.191 µg/mL) |  |  | 0.2 µM (≈ 0.0955 µg/mL) | <=0.1 μM | <=0.1 μM | <=0.1 μM |  |  | <=0.1 μM | <=0.1 μM
10 | CC(C)(C(NC(=O)c1ccc(C#Cc2ccc(CNCc3ccccc3)cc2)cc1)C(=O)NO)[N+](=O)[O-] (racemic) [Compound 652] |  |  | <=0.1 μM | <=0.1 μM | 0.4 µM (≈ 0.2 µg/mL) | 0.8 µM (≈ 0.4 µg/mL) | 0.8 µM (≈ 0.4 µg/mL) | 0.8 µM (≈ 0.4 µg/mL) | 0.4 µM (≈ 0.2 µg/mL) | 0.8 µM (≈ 0.4 µg/mL) | <=0.1 μM | <=0.1 μM |  |  |  |  | 
11 | CCC(C)C(NC(=O)c1ccc(C#Cc2ccc(CNCc3ccco3)cc2)cc1)C(=O)NO (stereo not shown) [Compound 301] | 0.4 µM (≈ 0.184 µg/mL) |  |  | <=0.1 μM | 0.8 µM (≈ 0.368 µg/mL) | 1.6 µM (≈ 0.735 µg/mL) | 0.4 µM (≈ 0.184 µg/mL) | 0.8 µM (≈ 0.368 µg/mL) | 0.8 µM (≈ 0.368 µg/mL) | 0.8 µM (≈ 0.368 µg/mL) |  | <=0.1 μM |  | 0.4 µM (≈ 0.184 µg/mL) |  |  | 
12 | CC(C)(C(NC(=O)c1ccc(C#Cc2ccc(CNCc3ccccn3)cc2)cc1)C(=O)NO)S(C)(=O)=O (stereo not shown) [C. 615] |  |  | <=0.1 μM | <=0.1 μM |  | 1.6 µM (≈ 0.855 µg/mL) | 1.6 µM (≈ 0.855 µg/mL) | 0.4 µM (≈ 0.214 µg/mL) | 1.6 µM (≈ 0.855 µg/mL) | 0.8 µM (≈ 0.428 µg/mL) | <=0.1 μM | <=0.1 μM | <=0.1 μM |  |  |  | 
13 | C#CCNCc1ccc(C#Cc2ccc(C(=O)NC(C(=O)NO)C(C)(C)N)cc2)s1 (racemic) [Compound 633] | 0.2 µM (≈ 0.0849 µg/mL) |  | <=0.1 μM | <=0.1 μM | 0.2 µM (≈ 0.0849 µg/mL) | 0.8 µM (≈ 0.34 µg/mL) | 0.8 µM (≈ 0.34 µg/mL) | 0.4 µM (≈ 0.17 µg/mL) | 0.8 µM (≈ 0.34 µg/mL) | 0.8 µM (≈ 0.34 µg/mL) |  | <=0.1 μM |  |  |  |  | 
14 | CC(C)C(NC(=O)c1ccc(C#Cc2ccc(CNCc3nccs3)cc2)cc1)C(=O)NO (stereo not shown) [Compound 341] |  |  | <=0.1 μM | <=0.1 μM |  | 0.4 µM (≈ 0.185 µg/mL) | 0.2 µM (≈ 0.0925 µg/mL) | 0.4 µM (≈ 0.185 µg/mL) | 0.2 µM (≈ 0.0925 µg/mL) | 0.4 µM (≈ 0.185 µg/mL) | <=0.1 μM | <=0.1 μM | <=0.1 μM |  |  |  | 
15 | C[C@@H](O)[C@H](NC(=O)c1ccc(C#Cc2ccc(N)cc2)cc1)C(=O)NO [C. 245, 4-[2-(4-aminophenyl)ethynyI]-N-[(1S,2R)-2-hydroxy-1-(hydroxycarbamoyl)propyl]benzamide] |  |  | <=0.1 μM | <=0.1 μM | 0.2 µM (≈ 0.0707 µg/mL) | 0.8 µM (≈ 0.283 µg/mL) | 0.2 µM (≈ 0.0707 µg/mL) | 0.4 µM (≈ 0.141 µg/mL) | 0.4 µM (≈ 0.141 µg/mL) | 0.4 µM (≈ 0.141 µg/mL) | <=0.1 μM | <=0.1 μM |  |  |  |  | 
16 | CC(C)(O)C(NC(=O)c1ccc(C#Cc2ccc(CNCc3ccco3)cc2)cc1)C(=O)NO (stereo not shown) [Compound 577] |  |  | <=0.1 μM | <=0.1 μM |  | 0.8 µM (≈ 0.369 µg/mL) | 0.4 µM (≈ 0.185 µg/mL) | 0.2 µM (≈ 0.0923 µg/mL) | 0.2 µM (≈ 0.0923 µg/mL) | 0.4 µM (≈ 0.185 µg/mL) | <=0.1 μM | <=0.1 μM | <=0.1 μM |  |  |  | 
17 | C[C@@H](O)[C@H](NC(=O)c1ccc(C#Cc2ccc(CNCc3cccnc3)cc2)cc1)C(=O)NO [Compound 256] |  |  | <=0.1 μM | <=0.1 μM |  | 1.6 µM (≈ 0.734 µg/mL) | 0.4 µM (≈ 0.183 µg/mL) | 0.4 µM (≈ 0.183 µg/mL) | 0.8 µM (≈ 0.367 µg/mL) | 0.8 µM (≈ 0.367 µg/mL) | <=0.1 μM | <=0.1 μM | <=0.1 μM |  |  |  | 
18 | CC(C)(C(NC(=O)c1ccc(C#Cc2ccc(CNCc3ccncc3)cc2)cc1)C(=O)NO)[N+](=O)[O-] (racemic) [Compound 654] |  |  | <=0.1 μM | <=0.1 μM |  | 0.8 µM (≈ 0.401 µg/mL) | 0.4 µM (≈ 0.201 µg/mL) | 0.4 µM (≈ 0.201 µg/mL) | 0.4 µM (≈ 0.201 µg/mL) | 0.4 µM (≈ 0.201 µg/mL) | <=0.1 μM | <=0.1 μM | <=0.1 μM |  |  |  | 
19 | C[C@@H](O)[C@H](NC(=O)c1ccc(C#Cc2ccc(CNCc3ccnc(Cl)c3)cc2)cc1)C(=O)NO [Compound 257] |  |  | <=0.1 μM | <=0.1 μM |  | 0.8 µM (≈ 0.394 µg/mL) | 0.2 µM (≈ 0.0986 µg/mL) | 0.2 µM (≈ 0.0986 µg/mL) | 0.4 µM (≈ 0.197 µg/mL) | 0.4 µM (≈ 0.197 µg/mL) | <=0.1 μM | <=0.1 μM | <=0.1 μM |  |  |  | 
